Where two headings read alike, the source gives them in different places.
Tests used:
human GLP-1 receptor = target: T1, human GLP-1 receptor (Homo sapiens, UniProt P43220); test: cAMP response of HEK-293 cells stably expressing human GLP-1 receptor (HTRF); assay type: cell-based; conditions: read-out: EC50 hGLP-1R
T1 construct: expressed in transfected cells; host or cells: HEK-293
In short: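 HEK-293 cells stably expressing the receptor were taken up in HBSS/20 mM HEPES/0.1% BSA with 2 mM IBMX at 400000 cells/ml. They were exposed to increasing concentrations of peptide for 30 minutes at room temperature, and formed cAMP was measured by HTRF.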

human glucagon receptor = target: T2, human glucagon receptor (Homo sapiens, UniProt P47871); test: cAMP response of HEK-293 cells stably expressing human glucagon receptor (HTRF); assay type: cell-based; conditions: read-out: EC50 hGlucagon-R
T2 construct: expressed in transfected cells; host or cells: HEK-293
Description: (§1) For preparation, cells were split into T175 culture flasks and grown overnight to near confluency in medium (DMEM/10% FBS). Medium was then removed and cells washed with PBS lacking calcium and magnesium, followed by proteinase treatment with accutase (Sigma-Aldrich cat. no. A6964). Detached cells were washed and resuspended in assay buffer (1×HBSS; 20 mM HEPES, 0.1% BSA, 2 mM IBMX) and cellular density determined. They were then diluted to 400000 cells/ml and 25 μl-aliquots dispensed into the wells of 96-well plates. For measurement, 25 μl of test compound in assay buffer was added to the wells, followed by incubation for 30 minutes at room temperature. […] Potencies of peptidic compounds at the GLP-1, glucagon and GIP receptors were determined by exposing cells expressing human glucagon receptor (hGlucagon R), human GIP receptor (hGIP-R) or human GLP-1 receptor (hGLP-1R) to the listed compounds at increasing concentrations and measuring the formed cAMP as described in Methods.

human GIP receptor = target: T3, human GIP receptor (Homo sapiens, UniProt P48546); test: cAMP response of HEK-293 cells stably expressing human GIP receptor (HTRF); assay type: cell-based
T3 construct: expressed in transfected cells; host or cells: HEK-293
T3 sequence (P48546 22-466): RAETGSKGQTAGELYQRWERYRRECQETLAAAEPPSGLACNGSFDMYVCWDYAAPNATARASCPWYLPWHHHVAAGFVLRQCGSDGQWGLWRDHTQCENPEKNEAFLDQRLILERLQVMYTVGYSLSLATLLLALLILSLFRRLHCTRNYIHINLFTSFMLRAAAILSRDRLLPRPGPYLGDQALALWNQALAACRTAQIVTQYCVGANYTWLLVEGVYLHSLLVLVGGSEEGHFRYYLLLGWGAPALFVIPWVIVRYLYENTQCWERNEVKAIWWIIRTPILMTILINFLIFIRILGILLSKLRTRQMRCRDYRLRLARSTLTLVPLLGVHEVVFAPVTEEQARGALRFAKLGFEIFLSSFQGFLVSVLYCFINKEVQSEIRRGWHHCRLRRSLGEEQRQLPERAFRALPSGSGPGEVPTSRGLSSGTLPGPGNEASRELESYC
Description: as §1

[1] = Solubility testing in buffer (HPLC-UV); assay type: physicochemical
Description: Prior to the testing of solubility and stability of a peptide batch, its purity (HPLC-UV) was determined. […] Therefore, solutions from solid samples were prepared in different buffer systems with a concentration of 10 mg/mL compound based on the previously determined % purity. HPLC-UV was performed after 2 h of gentle agitation from the supernatant, which was obtained by 20 min of centrifugation at 4500 rpm. […] This analysis also served as starting point (t0) for the stability testing.

[2] = Stability testing in solution, 7 days at 40° C. (HPLC-UV); assay type: physicochemical; conditions: for Stability pH 4.5: pH 4.5, 7 days at 40° C. in solution; for Stability pH 7.4: pH 7.4, 7 days at 40° C. in solution
Description: After that time course, the sample was centrifuged for 20 min at 4500 rpm and 0.2 μL of the supernatant were analysed with HPLC-UV.
For determination of the amount of the remaining peptide, the peak areas of the target compound at t0 and t7 were compared, resulting in “% remaining peptide”, following the equation % remaining peptide=[(peak area peptide t7)×100]/peak area peptide t0.
The stability is expressed as “% remaining peptide”.

[3] = tested on: female diet-induced obese (DIO) C57BL/6 mice; test: Chronic effect on body weight and body fat in female DIO C57BL/6 mice; assay type: in vivo; conditions: 50 μg/kg bid s.c., 4 weeks
Description: C57BL/6 Harlan mice are housed in groups in a specific pathogen-free barrier facility on a 12 h light/dark cycle with free access to water and standard or high-fat diet. After prefeeding on high-fat diet, mice are stratified to treatment groups (n=8), so that each group has similar mean body weight. An age-matched group with ad-libitum access to standard chow is included as standard control group. Before the experiment, mice are subcutaneously (s.c.) injected with vehicle solution and weighed for 3 days to acclimate them to the procedures.
Body weight is recorded daily. Two days before start of treatment and on day 26, total fat mass is measured by nuclear magnetic resonance (NMR).
Statistical analyses are performed with Everstat 6.0 by repeated measures two-way ANOVA and Dunnetts post-hoc analyses (glucose profile) and 1-way-ANOVA, followed by Dunnetts post-hoc test (body weight, body fat). Differences versus vehicle-treated DIO control mice are considered statistically significant at the p<0.05 level.
Female obese C57BL/6 mice were treated for 4 weeks twice daily subcutaneously with 50 μg/kg SEQ ID NO: 6, 50 μg/kg SEQ ID NO: 7 or vehicle. Body weight was recorded daily, and body fat content was determined before the start and after 4 weeks of treatment. […] These changes resulted from a decrease in body fat, as shown by the absolute changes in body fat content (Table 10, FIG. 3).
Female obese C57BL/6 mice were treated for 4 weeks twice daily subcutaneously with 50 μg/kg SEQ ID NO: 9 or vehicle. Body weight was recorded daily, and body fat content was determined before the start and after 4 weeks of treatment.

[4] = pH 4.5, target concentration 10 mg/ml, read-out: solubility pH 4.5
[5] = pH 7.4, target concentration 10 mg/ml, read-out: solubility pH 7.4
[6] = Table 7, comparison of residue in position 14

T2 sequence (P47871 26-477): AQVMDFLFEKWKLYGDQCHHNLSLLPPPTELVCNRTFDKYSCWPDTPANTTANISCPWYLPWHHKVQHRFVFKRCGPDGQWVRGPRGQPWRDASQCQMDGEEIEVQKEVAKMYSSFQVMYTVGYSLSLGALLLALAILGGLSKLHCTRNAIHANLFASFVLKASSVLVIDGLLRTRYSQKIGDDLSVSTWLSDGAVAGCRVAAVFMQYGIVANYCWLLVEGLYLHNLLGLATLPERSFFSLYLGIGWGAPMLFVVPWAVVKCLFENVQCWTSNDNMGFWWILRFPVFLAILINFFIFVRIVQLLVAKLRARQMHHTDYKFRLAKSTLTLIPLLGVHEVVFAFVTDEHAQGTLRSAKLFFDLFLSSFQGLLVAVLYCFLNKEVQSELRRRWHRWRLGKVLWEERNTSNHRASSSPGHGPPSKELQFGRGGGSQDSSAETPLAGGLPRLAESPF
T1 sequence (P43220 24-463): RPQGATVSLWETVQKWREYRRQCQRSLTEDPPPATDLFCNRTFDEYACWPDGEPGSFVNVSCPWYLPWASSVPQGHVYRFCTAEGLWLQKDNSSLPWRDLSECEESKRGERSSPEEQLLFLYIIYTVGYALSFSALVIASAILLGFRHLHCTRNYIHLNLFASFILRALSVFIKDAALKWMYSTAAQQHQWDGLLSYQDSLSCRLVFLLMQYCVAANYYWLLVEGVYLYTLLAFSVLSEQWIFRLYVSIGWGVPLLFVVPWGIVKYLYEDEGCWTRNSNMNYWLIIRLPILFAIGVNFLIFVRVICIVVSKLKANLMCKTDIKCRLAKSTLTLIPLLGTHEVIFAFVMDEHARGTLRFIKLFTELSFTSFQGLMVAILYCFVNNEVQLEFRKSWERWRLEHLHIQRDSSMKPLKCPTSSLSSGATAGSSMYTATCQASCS

| SMILES | EC50 (human GLP-1 receptor; Table 6) [nM] | EC50 (human glucagon receptor; Table 6) [nM] | EC50 (human GIP receptor; Table 6, read-out: EC50 hGIP-R) [nM] | solubility at 2 h [1, 4] [µg/mL] | solubility at 2 h [1, 5] [µg/mL] | Stability pH 4.5 [2] [% remaining peptide] | Stability pH 7.4 [2] [% remaining peptide] | daily body weight compared to vehicle DIO control mice [3] | Body fat change ([3]; Table 10 (Example 7), NMR, mean ± SEM) [g] | Overall weight change ([3]; Table 10 (Example 7), mean ± SEM) [g] | EC50 (human GLP-1 receptor; [6]) [nM] | EC50 (human glucagon receptor; [6]) [nM] | EC50 (human GIP receptor; Table 7, comparison of residue in position 14, read-out: EC50 hGIP-1) [nM] |
| --- | --- | --- | --- | --- | --- | --- | --- | --- | --- | --- | --- | --- | --- |
| CCCCCCCCCCCCCCCC(=O)N[C@@H](CCC(=O)N[C@@H](CCC(=O)NCCCC[C@H](NC(=O)[C@H](CCC(N)=O)NC(=O)[C@H](CCCCN)NC(=O)[C@H](CO)NC(=O)[C@H](CC(C)C)NC(=O)[C@H](CC(=O)O)NC(=O)[C@H](CO)NC(=O)[C@@H](NC(=O)[C@H](Cc1ccccc1)NC(=O)[C@@H](NC(=O)CNC(=O)[C@H](Cc1c[nH]cn1)NC(=O)[C@@H](CO)NC(=O)[C@@H](N)Cc1c[nH]cn1)[C@@H](C)O)[C@@H](C)O)C(=O)N[C@@H](CCC(=O)O)C(=O)N[C@@H](CCC(=O)O)C(=O)N[C@@H](CCC(=O)O)C(=O)N[C@@H](C)C(=O)N[C@@H](C)C(=O)N[C@@H](CCCNC(=N)N)C(=O)N[C@@H](CC(C)C)C(=O)N[C@@H](Cc1ccccc1)C(=O)N[C@H](C(=O)N[C@@H](CCC(=O)O)C(=O)N[C@@H](Cc1c[nH]c2ccccc12)C(=O)N[C@@H](CC(C)C)C(=O)NC(C)(C)C(=O)N[C@@H](C)C(=O)NCC(=O)NCC(=O)N1CCC[C@H]1C(=O)N[C@@H](CO)C(=O)N[C@@H](CO)C(=O)NCC(=O)N[C@@H](C)C(=O)N1CCC[C@H]1C(=O)N1CCC[C@H]1C(=O)N1CCC[C@H]1C(=O)N[C@@H](CO)C(N)=O)[C@@H](C)CC)C(=O)O)C(=O)O [SEQ ID NO: 6, H-dSer-H-G-T-F-T-S-D-L-S-K-Q-K(γE-γE-x53)-E-E-E-A-A-R-L-F-I-E-W-L-Aib-A-G-G-P-S-S-G-A-P-P-P-S-NH2] | 0.0026 | 0.0177 | 1.54 | > 8000 | > 8000 | 100.0 | 92.0 | decrease in daily body weight | -4.64 ± 0.4 | -6.08 ± 0.6 |  |  |  |
| CCCCCCCCCCCCCCCC(=O)N[C@@H](CCC(=O)NCCCC[C@H](NC(=O)[C@H](CCC(N)=O)NC(=O)[C@H](CCCCN)NC(=O)[C@H](CO)NC(=O)[C@H](CC(C)C)NC(=O)[C@H](CC(=O)O)NC(=O)[C@H](CO)NC(=O)[C@@H](NC(=O)[C@H](Cc1ccccc1)NC(=O)[C@@H](NC(=O)CNC(=O)[C@H](CCC(N)=O)NC(=O)[C@@H](CO)NC(=O)[C@@H](N)Cc1c[nH]cn1)[C@@H](C)O)[C@@H](C)O)C(=O)N[C@@H](CC(=O)O)C(=O)N[C@@H](CCC(=O)O)C(=O)N[C@@H](CCC(=O)O)C(=O)N[C@@H](C)C(=O)N[C@@H](C)C(=O)N[C@@H](CCCNC(=N)N)C(=O)N[C@@H](CC(C)C)C(=O)N[C@@H](Cc1ccccc1)C(=O)N[C@H](C(=O)N[C@@H](CCC(=O)O)C(=O)N[C@@H](Cc1c[nH]c2ccccc12)C(=O)N[C@@H](CC(C)C)C(=O)NC(C)(C)C(=O)N[C@@H](C)C(=O)NCC(=O)NCC(=O)N1CCC[C@H]1C(=O)N[C@@H](CO)C(=O)N[C@@H](CO)C(=O)NCC(=O)N[C@@H](C)C(=O)N1CCC[C@H]1C(=O)N1CCC[C@H]1C(=O)N1CCC[C@H]1C(=O)N[C@@H](CO)C(N)=O)[C@@H](C)CC)C(=O)O [SEQ ID NO: 14, H-dSer-Q-G-T-F-T-S-D-L-S-K-Q-K(γE-x53)-D-E-E-A-A-R-L-F-I-E-W-L-Aib-A-G-G-P-S-S-G-A-P-P-P-S-NH2] | 0.0021 | 0.0247 | 5.36 | > 8000 | > 8000 | 94.7 | 96.3 |  |  |  |  |  |  |
| CCCCCCCCCCCCCCCC(=O)N[C@@H](CCC(=O)N[C@@H](CCC(=O)NCCCC[C@H](NC(=O)[C@H](CCC(N)=O)NC(=O)[C@H](CCCCN)NC(=O)[C@H](CO)NC(=O)[C@H](CC(C)C)NC(=O)[C@H](CC(=O)O)NC(=O)[C@H](CO)NC(=O)[C@@H](NC(=O)[C@H](Cc1ccccc1)NC(=O)[C@@H](NC(=O)CNC(=O)[C@H](CCC(N)=O)NC(=O)[C@@H](CO)NC(=O)[C@@H](N)Cc1c[nH]cn1)[C@@H](C)O)[C@@H](C)O)C(=O)N[C@@H](CC(=O)O)C(=O)N[C@@H](CCC(=O)O)C(=O)N[C@@H](CCC(=O)O)C(=O)N[C@@H](C)C(=O)N[C@@H](C)C(=O)N[C@@H](CCCNC(=N)N)C(=O)N[C@@H](CC(C)C)C(=O)N[C@@H](Cc1ccccc1)C(=O)N[C@H](C(=O)N[C@@H](CCC(=O)O)C(=O)N[C@@H](Cc1c[nH]c2ccccc12)C(=O)N[C@@H](CC(C)C)C(=O)N[C@@H](CCCCN)C(=O)N[C@@H](C)C(=O)NCC(=O)NCC(=O)N1CCC[C@H]1C(=O)N[C@@H](CO)C(=O)N[C@@H](CO)C(=O)NCC(=O)N[C@@H](C)C(=O)N1CCC[C@H]1C(=O)N1CCC[C@H]1C(=O)N1CCC[C@H]1C(=O)N[C@@H](CO)C(N)=O)[C@@H](C)CC)C(=O)O)C(=O)O [SEQ ID NO: 32, H-dSer-Q-G-T-F-T-S-D-L-S-K-Q-K(γE-γE-x53)-DEEAARLFIEWLKAGGPSSGAPPPS-NH2, reference compound] |  |  |  |  |  |  |  |  |  |  | 0.0019 | 0.0055 | 0.565 |
